# Laboratory results from US9745291B2, “PRMT5 inhibitors containing a dihydro- or tetrahydroisoquinoline and uses thereof” (Epizyme, Inc., priority 2012, dated 2017).
# Biological target: PRMT5/MEP50 (Homo sapiens (Human), UniProt O14744)
# Assay: PRMT5 Biochemical Assay (PRMT5/MEP50 enzyme assay on peptide substrate, 3H-SAM Flashplate)
# Conditions: PRMT5 biochemical assay; read-out: Biochemical IC50
# Source text: S-adenosylmethionine (SAM), S-adenosylhomocysteine (SAH), bicine, KCl, Tween20, dimethylsulfoxide (DMSO), bovine skin gelatin (BSG), and Tris(2-carboxyethyl)phosphine hydrochloride solution (TCEP) were purchased from Sigma-Aldrich at the highest level of purity possible. ^3H-SAM was purchase from American Radiolabeled Chemicals with a specific activity of 80 Ci/mmol. 384-well streptavidin Flashplates were purchased from PerkinElmer.
# Peptide representative of human histone H4 residues 1-15 was synthesized with a C-terminal linker-affinity tag motif and a C-terminal amide cap by 21st Century Biochemicals. […] The sequence was Ac-[…][K-Biot]-amide (SEQ ID NO.:3).
# Full-length human MEP50 (NM_024102) clone was amplified from a human testis cDNA library incorporating a 5′ sequence encoding a 6-histidine tag (MHHHHHH)(SEQ ID NO.:5) fused directly to Arg 2 of MEP50. The amplified genes were sublconed into pENTR/D/TEV (Life Technologies) and subsequently transferred by Gateway™ attL×attR recombination to pDEST8 baculvirus expression vector (Life Technologies).
# Recombinant baculovirus and Baculovirus-Infected Insect Cells (BIIC) were generated according to Bac-to-Bac kit instructions (Life Technologies) and Wasilko, 2006, respectively. Protein over-expression was accomplished by infecting exponentially growing Spodoptera frugiperda (SF9) cell culture at 1.2×10^6 cell/ml with a 5000 fold dilution of BIIC stock. Infections were carried out at 27° C. for 72 hours, harvested by centrifugation, and stored at −80° C. for purification.
# Flag-PRMT5/6His-MeP50 was eluted with 300 mM Imidazole in the same buffer. […] Reference: Wasilko, D. J. and S. E. Lee: “TIPS: titerless infected-cells preservation and scale-up” Bioprocess J., 5 (2006), pp. 29-32.
# General Procedure for PRMT5/MEP50 Enzyme Assays on Peptide Substrates.
# The assays were all performed in a buffer consisting of 20 mM Bicine (pH=7.6), 1 mM TCEP, 0.005% BSG, and 0.002% Tween20, prepared on the day of use. Compounds in 100% DMSO (1 ul) were spotted into a polypropylene 384-well V-bottom plates (Greiner) using a Platemate Plus outfitted with a 384-channel head (Thermo Scientific). DMSO (1 ul) was added to Columns 11, 12, 23, 24, rows A-H for the maximum signal control and 1 ul of SAH, a known product and inhibitor of PRMT5/MEP50, was added to columns 11, 12, 23, 24, rows I-P for the minimum signal control. A cocktail (40 ul) containing the PRMT5/MEP50 enzyme and the peptide was added by Multidrop Combi (Thermo-Fisher). The compounds were allowed to incubate with PRMT5/MEP50 for 30 min at 25 degrees Celsius, then a cocktail (10 ul) containing ^3H-SAM was added to initiate the reaction (final volume=51 ul).
# PRMT5/MEP50, sequence (O14744 other isoform, or with tags, fused parts or gaps): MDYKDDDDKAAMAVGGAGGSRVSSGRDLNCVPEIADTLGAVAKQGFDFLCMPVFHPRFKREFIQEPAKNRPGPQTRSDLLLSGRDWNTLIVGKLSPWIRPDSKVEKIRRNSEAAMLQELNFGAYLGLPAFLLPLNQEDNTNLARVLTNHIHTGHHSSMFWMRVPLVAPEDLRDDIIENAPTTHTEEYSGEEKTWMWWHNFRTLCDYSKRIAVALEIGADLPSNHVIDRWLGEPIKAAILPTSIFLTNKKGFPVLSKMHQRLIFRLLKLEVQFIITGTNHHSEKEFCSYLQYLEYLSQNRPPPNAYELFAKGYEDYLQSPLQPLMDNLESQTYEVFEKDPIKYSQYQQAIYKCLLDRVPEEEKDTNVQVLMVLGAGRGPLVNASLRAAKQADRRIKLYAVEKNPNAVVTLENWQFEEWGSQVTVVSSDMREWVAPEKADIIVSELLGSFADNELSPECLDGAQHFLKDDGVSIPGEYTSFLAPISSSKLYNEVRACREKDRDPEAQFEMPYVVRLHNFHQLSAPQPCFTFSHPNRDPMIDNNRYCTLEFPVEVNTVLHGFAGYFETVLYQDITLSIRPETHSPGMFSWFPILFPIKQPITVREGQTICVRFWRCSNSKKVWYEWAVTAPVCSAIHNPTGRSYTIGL
# PRMT5/MEP50, sequence (Q9BQA1 other isoform, or with tags, fused parts or gaps partner): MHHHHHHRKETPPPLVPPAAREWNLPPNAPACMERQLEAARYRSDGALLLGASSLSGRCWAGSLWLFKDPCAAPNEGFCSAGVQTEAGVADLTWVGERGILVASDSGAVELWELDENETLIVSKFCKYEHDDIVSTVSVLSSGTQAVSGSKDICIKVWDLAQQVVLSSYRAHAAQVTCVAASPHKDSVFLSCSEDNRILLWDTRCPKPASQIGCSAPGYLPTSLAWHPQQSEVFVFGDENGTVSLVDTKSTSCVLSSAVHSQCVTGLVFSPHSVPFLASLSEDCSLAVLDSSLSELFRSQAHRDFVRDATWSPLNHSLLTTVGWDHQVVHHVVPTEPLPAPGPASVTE
row,Compound,IC50
1,CN(C)S(=O)(=O)c1ccccc1OCC(=O)NCC(O)CN1CCc2ccccc2C1 (stereo not drawn) [Compound 109],< 100 nM
2,O=C(COc1ccccc1S(=O)(=O)N1CCCC1)NCC(O)CN1CCc2ccccc2C1 (stereo not drawn) [Compound 110],< 100 nM
3,O=C(COc1ccccc1S(=O)(=O)N1CCC(O)C1)NCC(O)CN1CCc2ccccc2C1 (stereo not drawn) [Compound 111],< 100 nM
4,O=C(COc1cccc2c1CNCC2)NCC(O)CN1CCc2ccccc2C1 (stereo not drawn) [Compound 119],< 100 nM
5,CNS(=O)(=O)c1ccccc1OCC(=O)NCC(O)CN1CCc2ccccc2C1 (stereo not drawn) [Compound 123],< 100 nM
6,CC(Oc1ccccc1S(N)(=O)=O)C(=O)NCC(O)CN1CCc2ccccc2C1 (stereo not drawn) [Compound 126],> 50000 nM
7,CC(=O)Nc1cccnc1OCC(=O)NCC(O)CN1CCc2ccccc2C1 (stereo not drawn) [Compound 128],> 50000 nM
8,CN1CCCC(c2ccccc2OCC(=O)NCC(O)CN2CCc3ccccc3C2)C1 (stereo not drawn) [Compound 130],< 100 nM
9,CN(C)c1cccnc1OCC(=O)NCC(O)CN1CCc2ccccc2C1 (stereo not drawn) [Compound 133],> 10000 nM
10,CS(=O)(=O)Nc1ncccc1OCC(=O)NCC(O)CN1CCc2ccccc2C1 (stereo not drawn) [Compound 139],> 10000 nM
11,O=C(COc1cccc2cccnc12)NCC(O)CN1Cc2ccccc2C(F)(F)C1 (stereo not drawn) [Compound 144],> 10000 nM
12,Cc1cn(C)c2cccc(OCC(=O)NCC(O)CN3CCc4ccccc4C3)c12 (stereo not drawn) [Compound 146],< 100 nM
13,CC(=O)Nc1ncccc1OCC(=O)NCC(O)CN1CCc2ccccc2C1 (stereo not drawn) [Compound 147],> 10000 nM
14,CC(=O)Nc1cncc(OCC(=O)NCC(O)CN2CCc3ccccc3C2)c1 (stereo not drawn) [Compound 148],> 10000 nM
15,O=C(COc1ccccc1S(=O)(=O)N1CCOCC1)NCC(O)CN1CCc2ccccc2C1 (stereo not drawn) [Compound 149],< 100 nM
16,Cn1cnc(-c2ccccc2OCC(=O)NCC(O)CN2CCc3ccccc3C2)c1 (stereo not drawn) [Compound 153],< 100 nM
17,O=C(COc1cccc2cnncc12)NCC(O)CN1CCc2ccccc2C1 (stereo not drawn) [Compound 154],1000 to 10000 nM
18,CN(c1ccccc1OCC(=O)NCC(O)CN1CCc2ccccc2C1)S(C)(=O)=O (stereo not drawn) [Compound 155],< 100 nM
19,Cn1cncc1-c1ccccc1OCC(=O)NCC(O)CN1CCc2ccccc2C1 (stereo not drawn) [Compound 156],1000 to 10000 nM
20,CC(Oc1ccccc1NS(C)(=O)=O)C(=O)NCC(O)CN1CCc2ccccc2C1 (stereo not drawn) [Compound 157],1000 to 10000 nM
21,Cc1nn(C)c2cccc(OCC(=O)NCC(O)CN3CCc4ccccc4C3)c12 (stereo not drawn) [Compound 158],< 100 nM
22,Cn1ncc2ccc(OCC(=O)NC[C@H](O)CN3CCc4ccccc4C3)cc21 [Compound 159],< 100 nM

row,Compound,IC50
1,Cn1ncc2ccc(OCC(=O)NC[C@@H](O)CN3CCc4ccccc4C3)cc21 [Compound 160],101 to 1000 nM
2,O=C(COc1cncc(C(=O)N2CCOCC2)c1)NCC(O)CN1CCc2ccccc2C1 (stereo not drawn) [Compound 161],101 to 1000 nM
3,CC(=O)Nc1ccncc1OCC(=O)NCC(O)CN1CCc2ccccc2C1 (stereo not drawn) [Compound 162],1000 to 10000 nM
4,Cc1cn(C)c2cccc(OCC(=O)NC[C@H](O)CN3CCc4ccccc4C3)c12 [Compound 163],< 100 nM
5,Cc1cn(C)c2cccc(OCC(=O)NC[C@@H](O)CN3CCc4ccccc4C3)c12 [Compound 164],< 100 nM
6,O=C(NCC(O)CN1CCc2ccccc2C1)C(O)c1ccccc1 (stereo not drawn) [Compound 165],101 to 1000 nM
7,O=C(COC1CCCOC1)NCC(O)CN1CCc2ccccc2C1 (stereo not drawn) [Compound 166],1000 to 10000 nM
8,O=C(COCCN1CCOCC1)NCC(O)CN1CCc2ccccc2C1 (stereo not drawn) [Compound 167],1000 to 10000 nM
9,Nc1ncnc2c(OCC(=O)NCC(O)CN3CCc4ccccc4C3)cccc12 (stereo not drawn) [Compound 168],< 100 nM
10,CN(C)c1cccc(OCC(=O)NCC(O)CN2CCc3ccccc3C2)c1S(N)(=O)=O (stereo not drawn) [Compound 169],< 100 nM
11,CC(NC(=O)COc1ccccc1S(N)(=O)=O)C(O)CN1CCc2ccccc2C1 (stereo not drawn) [Compound 170],< 100 nM
12,O=C(COC1CCOC1)NCC(O)CN1CCc2ccccc2C1 (stereo not drawn) [Compound 171],1000 to 10000 nM
13,O=C(COc1cncc(CN2CCOCC2)c1)NCC(O)CN1CCc2ccccc2C1 (stereo not drawn) [Compound 172],101 to 1000 nM
14,CC(O)(C(=O)NCC(O)CN1CCc2ccccc2C1)c1ccccc1 (stereo not drawn) [Compound 173],1000 to 10000 nM
15,O=C(Cc1ccc2c(c1)OCO2)NC[C@H](O)CN1CCc2ccccc2C1 [Compound 174],101 to 1000 nM
16,"O=C(CCc1nc2ccccc2[nH]1)NC[C@H](O)CN1CCc2ccccc2C1 [Compound 175, (S)-3-(1H-benzo[d]imidazol-2-yl)-N-(3-(3,4-dihydroisoquinolin-2(1H)-yl)-2-hydroxypropyl)propanamide]",< 100 nM
17,CN1CCN(CCOCC(=O)NCC(O)CN2CCc3ccccc3C2)CC1 (stereo not drawn) [Compound 176],1000 to 10000 nM
18,O=C(NC[C@H](O)CN1CCc2ccccc2C1)C1CNc2ccccc21 (stereo partly drawn) [Compound 177],101 to 1000 nM
19,O=C(CC1CCc2ccccc21)NC[C@H](O)CN1CCc2ccccc2C1 (stereo partly drawn) [Compound 178],101 to 1000 nM
20,O=C(CC1Cc2ccccc2C1)NC[C@H](O)CN1CCc2ccccc2C1 [Compound 179],101 to 1000 nM
21,O=C(NC[C@H](O)CN1CCc2ccccc2C1)C1CCCc2ccccc21 (stereo partly drawn) [Compound 180],1000 to 10000 nM
22,O=C(COc1cccc2cncnc12)NCC(O)CN1CCc2ccccc2C1 (stereo not drawn) [Compound 181],< 100 nM

row,Compound,IC50
1,O=C(Cc1c[nH]c2ccccc12)NC[C@H](O)CN1CCc2ccccc2C1 [Compound 182],101 to 1000 nM
2,O=C(NC[C@H](O)CN1CCc2ccccc2C1)C1COc2ccccc2O1 (stereo partly drawn) [Compound 183],101 to 1000 nM
3,O=C(NC[C@H](O)CN1CCc2ccccc2C1)[C@@H]1C[C@@H]2CCCC[C@@H]2N1 [Compound 184],1000 to 10000 nM
4,O=C(NC[C@H](O)CN1CCc2ccccc2C1)[C@H]1Cc2ccccc2CN1 [Compound 185],101 to 1000 nM
5,O=C(COc1cccc(-c2ncc[nH]2)c1)NC[C@@H](O)CN1CCc2ccccc2C1 [Compound 186],1000 to 10000 nM
6,Cn1ccnc1-c1cccc(OCC(=O)NC[C@@H](O)CN2CCc3ccccc3C2)c1 [Compound 187],1000 to 10000 nM
7,O=C(COc1cccc(C(=O)NCCN2CCOCC2)c1)NC[C@@H](O)CN1CCc2ccccc2C1 [Compound 188],1000 to 10000 nM
8,O=C(COc1cccc(C(=O)NCCc2c[nH]cn2)c1)NC[C@@H](O)CN1CCc2ccccc2C1 [Compound 189],101 to 1000 nM
9,CN1CCN(c2cccc(OCC(=O)NC[C@@H](O)CN3CCc4ccccc4C3)c2)CC1 [Compound 190],< 100 nM
10,CN(C)CCN(C)S(=O)(=O)c1ccccc1OCC(=O)NC[C@@H](O)CN1CCc2ccccc2C1 [Compound 191],< 100 nM
11,"O=C(CCc1nc2ccccc2[nH]1)NC[C@@H](O)CN1CCc2ccccc2C1 [Compound 192, (R)-3-(1H-benzo[d]imidazol-2-yl)-N-(3-(3,4-dihydroisoquinolin-2(1H)-yl)-2-hydroxypropyl)propanamide]",101 to 1000 nM
12,O=C(CCc1nc2ccccc2s1)NC[C@@H](O)CN1CCc2ccccc2C1 [Compound 193],1000 to 10000 nM
13,O=C(COc1nc2ccccc2[nH]1)NC[C@@H](O)CN1CCc2ccccc2C1 [Compound 212],1000 to 10000 nM
14,O=C(COc1cccc(C(=O)NCCn2ccnc2)c1)NC[C@@H](O)CN1CCc2ccccc2C1 [Compound 230],1000 to 10000 nM
15,CN1CCN(S(=O)(=O)c2ccccc2OCC(=O)NC[C@@H](O)CN2CCc3ccccc3C2)CC1CO (stereo partly drawn) [Compound 233],1000 to 10000 nM
16,O=C(COc1ccccc1[C@H]1CCCCN1)NC[C@@H](O)CN1CCc2ccccc2C1 [Compound 235],1000 to 10000 nM
17,O=C(CCn1cnc2ccccc21)NC[C@H](O)CN1CCc2ccccc2C1 [Compound 248],1000 to 10000 nM
18,[2H]C1([2H])Cc2ccccc2C([2H])([2H])N1C[C@@H](O)CNC(=O)CCc1nc2ccccc2[nH]1 [Compound 251],101 to 1000 nM
19,Cn1c(CCC(=O)NC[C@@H](O)CN2CCc3ccccc3C2)nc2ccccc21 [Compound 268],1000 to 10000 nM
20,O=C(COc1ccccc1N1CCNCC1)NC[C@@H](O)CN1CCc2ccccc2C1 [Compound 270],1000 to 10000 nM
21,CN1CC[C@@H](CN(C)S(=O)(=O)c2ccccc2OCC(=O)NC[C@@H](O)CN2CCc3ccccc3C2)C1 [Compound 272],< 100 nM
22,"N-(3-(3,4-dihydroisoquinolin-2(1H)-yl)-2-hydroxypropyl)-2-((5,6,7,8-tetrahydronaphthalen-1-yl)oxy)acetamide [Compound 62]",1000 to 10000 nM
